Columns and labels:
Assay in all cases: Kinase selectivity, scanMAX Kinase assay panel (DiscoverX), % control at 1 uM
Format in all cases: binding
[1] = target: T1, scanMAX Kinase assay panel (Homo sapiens, UniProt P49759); settings: CLK1; 1 uM; read-out: Percent Control (%)
T1 construct: purchased DiscoverX
How it was run: (§1)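 Binding across the scanMAX kinase panel was tested at 1 uM compound. % control = (compound − positive control)/(negative control − positive control) × 100; below 35 counted as active.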

[2] = target: T2, scanMAX Kinase assay panel (Homo sapiens, UniProt Q9NYL2); settings: ZAK; 1 uM; read-out: Percent Control (%)
T2 construct: purchased DiscoverX
T2 sequence (Q9NYL2 whole entry): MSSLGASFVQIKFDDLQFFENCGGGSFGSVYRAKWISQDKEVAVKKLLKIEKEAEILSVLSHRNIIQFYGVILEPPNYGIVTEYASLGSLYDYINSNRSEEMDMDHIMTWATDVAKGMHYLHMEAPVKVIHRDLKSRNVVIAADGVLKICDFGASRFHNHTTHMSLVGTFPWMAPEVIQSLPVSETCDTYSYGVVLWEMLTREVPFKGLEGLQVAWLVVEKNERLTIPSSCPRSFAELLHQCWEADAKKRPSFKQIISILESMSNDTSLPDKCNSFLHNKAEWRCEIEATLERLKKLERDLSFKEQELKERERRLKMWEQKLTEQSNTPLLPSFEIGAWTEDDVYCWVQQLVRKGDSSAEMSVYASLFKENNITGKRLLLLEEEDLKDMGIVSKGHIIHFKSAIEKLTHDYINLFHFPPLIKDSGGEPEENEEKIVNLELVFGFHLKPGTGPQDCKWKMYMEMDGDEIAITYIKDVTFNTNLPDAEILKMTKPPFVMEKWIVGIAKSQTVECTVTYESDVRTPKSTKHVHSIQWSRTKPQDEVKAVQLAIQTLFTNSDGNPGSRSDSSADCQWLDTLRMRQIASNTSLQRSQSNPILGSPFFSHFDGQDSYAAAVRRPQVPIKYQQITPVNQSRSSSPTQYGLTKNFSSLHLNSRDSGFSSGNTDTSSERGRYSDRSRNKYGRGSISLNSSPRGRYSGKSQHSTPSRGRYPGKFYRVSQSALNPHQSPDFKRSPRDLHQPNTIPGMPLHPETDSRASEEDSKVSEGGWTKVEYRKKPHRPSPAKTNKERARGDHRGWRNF
How it was run: as §1

[3] = target: T3, scanMAX Kinase assay panel (Homo sapiens, UniProt O15111); settings: IKK-alpha; 1 uM; read-out: Percent Control (%)
T3 construct: purchased DiscoverX
T3 sequence (O15111 1-745): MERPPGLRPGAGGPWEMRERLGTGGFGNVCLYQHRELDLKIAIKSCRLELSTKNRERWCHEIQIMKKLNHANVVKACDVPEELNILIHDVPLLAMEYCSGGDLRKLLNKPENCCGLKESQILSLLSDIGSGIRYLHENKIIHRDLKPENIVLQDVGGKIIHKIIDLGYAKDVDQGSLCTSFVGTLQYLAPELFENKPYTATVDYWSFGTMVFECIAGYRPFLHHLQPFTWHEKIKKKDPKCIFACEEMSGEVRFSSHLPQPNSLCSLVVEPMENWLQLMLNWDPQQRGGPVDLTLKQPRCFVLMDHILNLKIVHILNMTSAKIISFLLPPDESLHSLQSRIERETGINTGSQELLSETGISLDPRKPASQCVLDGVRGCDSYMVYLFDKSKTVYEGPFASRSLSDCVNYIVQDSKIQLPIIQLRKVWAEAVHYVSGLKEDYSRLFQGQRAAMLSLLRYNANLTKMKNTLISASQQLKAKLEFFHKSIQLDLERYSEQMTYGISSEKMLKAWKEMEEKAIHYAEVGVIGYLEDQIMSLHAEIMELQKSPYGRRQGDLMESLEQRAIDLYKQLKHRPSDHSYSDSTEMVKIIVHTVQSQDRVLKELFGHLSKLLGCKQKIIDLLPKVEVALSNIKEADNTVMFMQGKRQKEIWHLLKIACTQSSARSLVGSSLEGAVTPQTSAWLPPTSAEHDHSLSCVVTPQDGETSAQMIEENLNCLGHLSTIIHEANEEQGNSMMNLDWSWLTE
How it was run: as §1

[4] = target: T4, scanMAX Kinase assay panel (Homo sapiens, UniProt Q9P1W9); settings: PIM2; 1 uM; read-out: Percent Control (%)
T4 construct: purchased DiscoverX
T4 sequence (Q9P1W9 whole entry): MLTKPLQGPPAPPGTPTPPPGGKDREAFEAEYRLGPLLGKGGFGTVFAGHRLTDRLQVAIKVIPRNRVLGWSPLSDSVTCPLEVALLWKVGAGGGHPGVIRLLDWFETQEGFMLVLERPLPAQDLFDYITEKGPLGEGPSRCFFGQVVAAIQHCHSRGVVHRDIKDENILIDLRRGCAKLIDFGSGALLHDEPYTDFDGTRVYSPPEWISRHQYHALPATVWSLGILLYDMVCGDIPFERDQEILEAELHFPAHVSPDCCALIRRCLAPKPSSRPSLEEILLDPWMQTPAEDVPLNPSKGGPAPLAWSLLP
How it was run: as §1

[5] = target: T5, scanMAX Kinase assay panel (Homo sapiens, UniProt Q13233); settings: MAP3K1; 1 uM; read-out: Percent Control (%)
T5 construct: purchased DiscoverX
T5 sequence (Q13233 whole entry): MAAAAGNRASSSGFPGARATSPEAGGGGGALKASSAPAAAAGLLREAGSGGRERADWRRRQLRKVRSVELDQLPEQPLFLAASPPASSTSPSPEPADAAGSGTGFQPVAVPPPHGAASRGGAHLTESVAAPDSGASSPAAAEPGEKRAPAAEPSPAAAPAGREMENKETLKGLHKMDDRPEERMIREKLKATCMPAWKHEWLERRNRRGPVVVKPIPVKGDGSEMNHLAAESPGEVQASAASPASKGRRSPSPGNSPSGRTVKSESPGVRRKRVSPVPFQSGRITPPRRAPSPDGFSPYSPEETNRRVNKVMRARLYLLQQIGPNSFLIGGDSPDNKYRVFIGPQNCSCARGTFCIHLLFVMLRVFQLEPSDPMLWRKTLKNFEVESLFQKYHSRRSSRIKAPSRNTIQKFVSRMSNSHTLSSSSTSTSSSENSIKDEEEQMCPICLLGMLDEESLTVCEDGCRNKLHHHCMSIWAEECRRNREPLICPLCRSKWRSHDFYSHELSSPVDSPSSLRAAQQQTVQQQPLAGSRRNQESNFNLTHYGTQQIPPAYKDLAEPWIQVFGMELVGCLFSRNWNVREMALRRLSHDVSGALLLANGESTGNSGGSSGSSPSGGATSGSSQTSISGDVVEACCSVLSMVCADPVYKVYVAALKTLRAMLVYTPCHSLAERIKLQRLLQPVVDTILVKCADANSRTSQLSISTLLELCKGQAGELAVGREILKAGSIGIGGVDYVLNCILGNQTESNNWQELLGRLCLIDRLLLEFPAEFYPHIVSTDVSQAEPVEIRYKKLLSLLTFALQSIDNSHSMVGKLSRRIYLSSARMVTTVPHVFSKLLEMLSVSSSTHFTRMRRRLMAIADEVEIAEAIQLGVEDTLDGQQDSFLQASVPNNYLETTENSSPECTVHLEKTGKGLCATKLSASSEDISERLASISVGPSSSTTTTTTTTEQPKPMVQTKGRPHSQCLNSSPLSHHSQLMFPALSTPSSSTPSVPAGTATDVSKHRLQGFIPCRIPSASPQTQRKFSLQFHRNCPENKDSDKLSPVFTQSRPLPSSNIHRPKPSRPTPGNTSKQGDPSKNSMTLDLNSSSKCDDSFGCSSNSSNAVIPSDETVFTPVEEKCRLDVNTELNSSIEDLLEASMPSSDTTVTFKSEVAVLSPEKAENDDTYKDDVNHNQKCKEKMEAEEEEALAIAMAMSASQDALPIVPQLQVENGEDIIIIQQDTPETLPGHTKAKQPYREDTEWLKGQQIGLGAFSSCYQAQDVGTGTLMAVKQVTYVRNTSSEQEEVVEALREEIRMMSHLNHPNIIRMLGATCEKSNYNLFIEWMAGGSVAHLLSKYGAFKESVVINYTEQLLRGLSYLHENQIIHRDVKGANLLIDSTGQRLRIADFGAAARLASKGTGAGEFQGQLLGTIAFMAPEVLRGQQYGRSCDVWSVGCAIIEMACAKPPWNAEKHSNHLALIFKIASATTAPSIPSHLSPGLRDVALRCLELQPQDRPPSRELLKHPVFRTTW
How it was run: as §1

[6] = target: T6, scanMAX Kinase assay panel (Homo sapiens, UniProt P42684); settings: ABL2; 1 uM; read-out: Percent Control (%)
T6 construct: purchased DiscoverX
T6 sequence (P42684 whole entry): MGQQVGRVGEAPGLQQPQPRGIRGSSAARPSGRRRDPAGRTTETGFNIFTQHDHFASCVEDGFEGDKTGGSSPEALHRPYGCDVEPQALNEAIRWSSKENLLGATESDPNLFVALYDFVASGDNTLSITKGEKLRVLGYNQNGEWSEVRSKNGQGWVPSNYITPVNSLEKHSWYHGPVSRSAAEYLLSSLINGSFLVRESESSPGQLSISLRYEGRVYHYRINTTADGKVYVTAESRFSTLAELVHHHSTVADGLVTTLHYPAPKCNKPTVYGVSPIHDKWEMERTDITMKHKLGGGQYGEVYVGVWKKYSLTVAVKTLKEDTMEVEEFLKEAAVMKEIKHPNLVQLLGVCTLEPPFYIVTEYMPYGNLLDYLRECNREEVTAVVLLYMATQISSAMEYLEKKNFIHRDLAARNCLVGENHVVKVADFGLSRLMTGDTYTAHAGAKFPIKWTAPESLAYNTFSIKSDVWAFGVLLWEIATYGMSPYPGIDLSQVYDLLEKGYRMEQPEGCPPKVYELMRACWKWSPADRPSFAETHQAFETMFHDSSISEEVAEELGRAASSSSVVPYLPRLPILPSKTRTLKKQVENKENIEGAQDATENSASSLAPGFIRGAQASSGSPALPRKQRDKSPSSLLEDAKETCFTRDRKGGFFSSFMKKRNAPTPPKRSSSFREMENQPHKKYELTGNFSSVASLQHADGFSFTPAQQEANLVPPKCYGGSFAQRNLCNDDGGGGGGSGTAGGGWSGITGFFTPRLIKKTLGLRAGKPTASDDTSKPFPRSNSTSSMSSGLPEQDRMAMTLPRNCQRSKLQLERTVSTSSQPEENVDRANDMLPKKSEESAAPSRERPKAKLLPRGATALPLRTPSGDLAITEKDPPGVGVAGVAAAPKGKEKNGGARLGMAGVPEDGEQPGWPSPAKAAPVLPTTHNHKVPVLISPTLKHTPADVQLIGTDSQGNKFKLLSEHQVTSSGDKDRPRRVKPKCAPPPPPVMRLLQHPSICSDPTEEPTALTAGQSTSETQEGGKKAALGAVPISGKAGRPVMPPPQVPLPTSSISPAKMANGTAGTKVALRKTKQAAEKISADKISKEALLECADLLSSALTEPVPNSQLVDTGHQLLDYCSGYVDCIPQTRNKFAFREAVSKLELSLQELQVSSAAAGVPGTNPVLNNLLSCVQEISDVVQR
How it was run: as §1

[7] = target: T7, scanMAX Kinase assay panel (Homo sapiens, UniProt Q92772); settings: CDKL2; 1 uM; read-out: Percent Control (%)
T7 construct: purchased DiscoverX
T7 sequence (Q92772 1-493): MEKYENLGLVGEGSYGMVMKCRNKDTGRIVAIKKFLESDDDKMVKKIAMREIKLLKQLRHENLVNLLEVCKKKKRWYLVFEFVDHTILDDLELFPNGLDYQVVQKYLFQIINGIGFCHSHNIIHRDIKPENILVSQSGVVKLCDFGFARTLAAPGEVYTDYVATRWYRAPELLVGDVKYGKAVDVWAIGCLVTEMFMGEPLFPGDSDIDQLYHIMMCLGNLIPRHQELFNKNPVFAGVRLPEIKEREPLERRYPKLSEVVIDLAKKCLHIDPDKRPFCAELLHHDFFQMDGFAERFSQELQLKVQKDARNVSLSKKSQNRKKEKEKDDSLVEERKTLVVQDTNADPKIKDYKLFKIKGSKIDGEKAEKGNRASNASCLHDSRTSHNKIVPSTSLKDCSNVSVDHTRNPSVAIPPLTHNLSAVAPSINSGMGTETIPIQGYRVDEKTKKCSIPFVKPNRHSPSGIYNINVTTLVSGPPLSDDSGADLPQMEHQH
How it was run: as §1

[8] = target: T8, scanMAX Kinase assay panel (Homo sapiens, UniProt Q16288); settings: TRKC; 1 uM; read-out: Percent Control (%)
T8 construct: purchased DiscoverX
T8 sequence (Q16288 32-839): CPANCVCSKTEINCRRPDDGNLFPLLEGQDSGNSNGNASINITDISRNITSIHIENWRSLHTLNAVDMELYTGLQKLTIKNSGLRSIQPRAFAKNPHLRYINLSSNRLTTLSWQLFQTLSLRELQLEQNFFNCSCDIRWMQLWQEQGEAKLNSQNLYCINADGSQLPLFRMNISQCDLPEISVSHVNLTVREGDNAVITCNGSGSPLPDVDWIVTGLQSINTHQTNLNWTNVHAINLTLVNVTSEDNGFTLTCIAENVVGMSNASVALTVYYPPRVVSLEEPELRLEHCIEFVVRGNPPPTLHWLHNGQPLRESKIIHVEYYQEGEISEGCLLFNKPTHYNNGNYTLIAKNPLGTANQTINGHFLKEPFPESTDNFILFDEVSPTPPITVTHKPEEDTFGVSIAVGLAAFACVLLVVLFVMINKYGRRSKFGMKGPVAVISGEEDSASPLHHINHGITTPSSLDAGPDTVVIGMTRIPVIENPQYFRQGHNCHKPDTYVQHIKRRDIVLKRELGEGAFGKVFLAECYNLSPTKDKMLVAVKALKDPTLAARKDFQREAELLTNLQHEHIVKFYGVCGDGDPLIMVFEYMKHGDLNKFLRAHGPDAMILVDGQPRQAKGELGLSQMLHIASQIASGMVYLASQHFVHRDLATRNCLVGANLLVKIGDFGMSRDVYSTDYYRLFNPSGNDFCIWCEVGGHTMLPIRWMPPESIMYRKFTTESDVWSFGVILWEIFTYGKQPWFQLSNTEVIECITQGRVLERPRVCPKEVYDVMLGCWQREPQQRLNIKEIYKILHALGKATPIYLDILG
How it was run: as §1

[9] = target: T9, scanMAX Kinase assay panel (Homo sapiens, UniProt P27448); settings: MARK3; 1 uM; read-out: Percent Control (%)
T9 construct: purchased DiscoverX
How it was run: as §1

T1 sequence (P49759 whole entry): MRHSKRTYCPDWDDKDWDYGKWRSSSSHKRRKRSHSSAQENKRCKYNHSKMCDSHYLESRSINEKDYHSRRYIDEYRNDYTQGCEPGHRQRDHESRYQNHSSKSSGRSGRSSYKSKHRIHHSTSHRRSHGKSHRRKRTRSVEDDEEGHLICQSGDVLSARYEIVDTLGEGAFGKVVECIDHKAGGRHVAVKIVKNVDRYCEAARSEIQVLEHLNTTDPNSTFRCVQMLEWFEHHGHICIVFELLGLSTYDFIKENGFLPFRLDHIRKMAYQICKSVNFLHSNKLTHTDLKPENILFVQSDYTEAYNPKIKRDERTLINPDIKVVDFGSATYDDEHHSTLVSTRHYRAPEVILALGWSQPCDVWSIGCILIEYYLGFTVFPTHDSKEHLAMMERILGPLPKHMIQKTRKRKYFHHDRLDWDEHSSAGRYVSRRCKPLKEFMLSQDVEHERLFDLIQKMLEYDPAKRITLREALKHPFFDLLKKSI

Cc1ccc(C(=O)Nc2ccc(CN3CCN(C)CC3)c(C(F)(F)F)c2)cc1C#Cc1cnc2c(Nc3cnn(C)c3)cccn12 [Example 1, 4-methyl-3-((8-((1-methyl-1H-pyrazol-4-yl)amino)imidazo[1,2-a]pyridin-3-yl)ethynyl)-N-(4-((4-methylpiperazin-1-yl)methyl)-3-(trifluoromethyl)phenyl)benzamide]
remaining binding at 1 µM [1]: 25% | remaining binding at 1 µM [2]: 1% | remaining binding at 1 µM [3]: 2% | remaining binding at 1 µM [4]: 100% | remaining binding at 1 µM [5]: 44% | remaining binding at 1 µM [6]: 0% | remaining binding at 1 µM [7]: 0% | remaining binding at 1 µM [8]: 0% | remaining binding at 1 µM [9]: 53%

Cc1cn(-c2cc(NC(=O)c3ccc(C)c(C#Cc4cnc5c(Nc6cnn(C)c6)cccn45)c3)cc(C(F)(F)F)c2)cn1 [Example 12, 4-methyl-N-(3-(4-methyl-1H-imidazol-1-yl)-5-(trifluoromethyl)phenyl)-3-((8-((1-methyl-1H-pyrazol-4-yl)amino)imidazo[1,2-a]pyridin-3-yl)ethynyl)benzamide]
remaining binding at 1 µM [1]: 82% | remaining binding at 1 µM [2]: 1% | remaining binding at 1 µM [3]: 28% | remaining binding at 1 µM [4]: 91% | remaining binding at 1 µM [5]: 67% | remaining binding at 1 µM [6]: 1% | remaining binding at 1 µM [7]: 55% | remaining binding at 1 µM [8]: 3% | remaining binding at 1 µM [9]: 94%

Cc1ccc(NC(=O)C2(C(=O)Nc3ccc(F)cc3)CC2)cc1C#Cc1cnc2c(Nc3cnn(C(C)C)c3)cccn12 [Example 78]
remaining binding at 1 µM [1]: 79% | remaining binding at 1 µM [2]: 19% | remaining binding at 1 µM [3]: 100% | remaining binding at 1 µM [4]: 100% | remaining binding at 1 µM [5]: 94% | remaining binding at 1 µM [6]: 14% | remaining binding at 1 µM [7]: 94% | remaining binding at 1 µM [8]: 96% | remaining binding at 1 µM [9]: 100%
